# Data reported in patent US6399614B1, “1-(N-phenylaminoalkyl)piperazine derivatives substituted at position 2 of the phenyl ring” (Recordati S.A. Chemical and Pharmaceutical Company, priority 1997, dated 2002).
# Molecular target: T1, human 5-HT1A serotonergic receptor (Homo sapiens, UniProt P08908)
# T1 construct: expressed in transfected cells; host or cells: HeLa
# T1 sequence (P08908 1-422): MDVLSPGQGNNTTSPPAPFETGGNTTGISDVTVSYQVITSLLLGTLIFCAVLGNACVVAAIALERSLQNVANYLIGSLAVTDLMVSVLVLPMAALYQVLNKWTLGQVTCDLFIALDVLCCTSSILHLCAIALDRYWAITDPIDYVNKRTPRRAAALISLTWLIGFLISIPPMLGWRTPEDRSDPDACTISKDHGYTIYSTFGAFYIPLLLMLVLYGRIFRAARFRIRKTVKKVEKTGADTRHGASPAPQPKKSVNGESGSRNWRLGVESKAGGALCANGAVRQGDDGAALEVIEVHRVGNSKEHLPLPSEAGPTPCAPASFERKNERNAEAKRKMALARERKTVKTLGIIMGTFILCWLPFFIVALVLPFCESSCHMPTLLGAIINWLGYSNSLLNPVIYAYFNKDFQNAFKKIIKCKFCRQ
# Experiment: Radioreceptor binding, recombinant human 5-HT1A receptors ([3H]8-OH-DPAT, HeLa membranes)
# Settings: recombinant human receptor, [3H]8-OH-DPAT; Ki from IC50 by Cheng & Prusoff; read-out: Binding affinity for the 5-HT1A receptor, Ki
# Method: Genomic clone G-21 coding for the human 5-HT1A serotonergic receptor is stably transfected in a human cell line (HeLa). HeLa cells were grown as monolayers in Dulbecco's modified Eagle's medium (DMEM), supplemented with 10% fetal calf serum and gentamicin ([…]), 5% CO2 at 37° C. Cells were detached from the growth flask at 95% confluence by a cell scraper and were lysed in ice-cold 5 mM Tris and 5 mM EDTA buffer (pH 7.4). Homogenates were centrifuged at 40000×g×20 min and pellets were resuspended in a small volume of ice-cold 5 mM Tris and 5 mM EDTA buffer (pH 7.4) and immediately frozen and stored at −70° C. until use. On the day of experiment, cell membranes were resuspended in binding buffer: 50 mM Tris HCl (pH 7.4), 2.5 mM MgCl2, 10 μM pargiline (Fargin et al., Nature 335, 358-360, 1988). Membranes were incubated in a final volume of 1 ml for 30 min at 30° C. with 0.2-1 nM [3H]8-OH-DPAT, in absence or presence of competing drugs; non-specific binding was determined in the presence of 10 μM 5-HT. The incubation was stopped by addition of ice-cold Tris-HCl buffer and rapid filtration through 0.2% polyethyleneimine pretreated Whatman GF/B or Schleicher & Schuell GF52 filters.
# The inhibition of specific binding of the radioligands by the tested drugs was analyzed to estimate the IC50 value by using the non-linear curve-fitting program Allfit (De Lean et al., Am. J. Physiol. 235, E97-E102, 1978). The IC50 value was converted to an affinity constant (Ki) by the equation of Cheng & Prusoff (Cheng, Y. C.; Prusoff, W. H. Biochem. Pharmacol. 22, 3099-3108, 1973).
row,SMILES,Ki
1,"O=C(C1CCCCC1)N(CCN1CCN(c2ccccc2OC(F)(F)F)CC1)c1ccccc1OC(F)(F)F [Example 72, 1-[N-cyclohexylcarbonyl-N-(2-trifluoromethoxyphenyl)-2-aminoethyl]-4-(2-trifluoromethoxyphenyl)piperazine]",1.22 nM
2,COc1ccccc1N1CCN(CCN(C(=O)c2cncs2)c2ccccc2[N+](=O)[O-])CC1 [Example 73],21.2 nM
3,"N#Cc1ccccc1N(CCN1CCN(c2ccccc2OC(F)(F)F)CC1)C(=O)C1CCCCC1 [Example 77, 1-[N-(2-cyanophenyl)-N-cyclohexylcarbonyl-2-aminoethyl]-4-(2-trifluoromethoxyphenyl)piperazine]",0.58 nM
4,"O=C(C1CCCCC1)N(CCN1CCN(c2cccc3c2ccn3C(=O)C2CCCCC2)CC1)c1ccccc1OC(F)(F)F [Example 84, 1-[N-cyclohexylcarbonyl-N-(2-trifluoromethoxyphenyl)-2-aminoethyl]-4-(1-cyclohexylcarbonyl-4-indolyl)piperazine]",23.2 nM

# Continued by falling Ki, values first:
row,Ki,SMILES
1,2.02 nM,"COc1ccc(Br)c(CN2CCN(CCNc3ccccc3OC(F)(F)F)CC2)c1 [Example 74, 1-[N-(2-trifluoromethoxyphenyl)-2-aminoethyl]-4-(2-bromo-5-methoxybenzyl)piperazine]"
2,1.31 nM,"COc1ccc(Br)c(CN2CCN(CCN(C(=O)C3CCCCC3)c3ccccc3C#N)CC2)c1 [Example 83, 1-[N-(2-cyanophenyl)-N-cyclohexylcarbonyl-2-aminoethyl]-4-(2-bromo-5-methoxybenzyl)piperazine]"
3,1.03 nM,"CS(=O)(=O)Nc1ccccc1N(CCN1CCN(c2cccc3[nH]ccc23)CC1)C(=O)C1CCCCC1 [Example 88, 1-[N-cyclohexylcarbonyl-N-(2-methanesulphonylaminophenyl)-2-aminoethyl]-4-(4-indolyl)piperazine]"
4,0.69 nM,"O=C(C1CCCCC1)N(CCN1CCN(c2cccc3[nH]ccc23)CC1)c1ccccc1I [Example 76, 1-[N-cyclohexylcarbonyl-N-(2-iodophenyl)-2-aminoethyl]-4-(4-indolyl)piperazine]"
